These results are taken from patent US20230049952A1, “METHODS AND COMPOUNDS FOR RESTORING MUTANT P53 FUNCTION” (PMV Pharmaceuticals, Inc., priority 2020, published 2023).

This series can be described thus: Compound 2 and metabolites in rat plasma, 50 mg/kg PO QD×10. Format: in vivo. The following applies: for AUC0-24 / AUC0-last / % of Parent: rat; for Average Concentration: rat plasma. As to the method:
The proposed metabolite pathway was determined in vitro, and levels of potential metabolites were measured by LC/MS-MS in rat plasma remaining from the dose rising 10-day repeat dose study in rats. Six potential metabolites were quantified in the low (50 mg/kg) single dose rats. […] Rats were rotated between timepoints to form a composite PK curve. […] A 100 μL aliquot of the supernatant was transferred to the sample plate and mixed with 100 μL of water, then the plate was shaken at 800 rpm for 10 min. 0.5-2 μL supernatant was then injected into a Triple Quad 6500+ for LC-MS/MS analysis. The standard curve was generated at 1-3000 ng/mL for the compounds in rat plasma (EDTA-K2).
The male and female PK parameters were averaged together since there was <2-fold variation between the genders. All values deemed below the level of quantification (BLQ) were excluded from the PK parameters calculations.

Where [1] appears, read: Compound 2 50 mg/kg PO QD×1, 1 h, 50 mg/kg.
Where [2] appears, read: Compound 2 50 mg/kg PO QD×1, 2 h, 50 mg/kg.
[3] abbreviates: Compound 2 50 mg/kg PO QD×1, 4 h, 50 mg/kg.
[4] abbreviates: Compound 2 50 mg/kg PO QD×1, 8 h, 50 mg/kg.
Where [5] appears, read: Compound 2 50 mg/kg PO QD×1, 24 h, 50 mg/kg.
[6] abbreviates: Compound 2 50 mg/kg PO QD×10, 1 h post tenth dose, 50 mg/kg.
The mark [7] stands for this setting: Compound 2 50 mg/kg PO QD×10, 2 h post tenth dose, 50 mg/kg.
Setting [8] is: Compound 2 50 mg/kg PO QD×10, 4 h post tenth dose, 50 mg/kg.
Setting [9] is: Compound 2 50 mg/kg PO QD×10, 8 h post tenth dose, 50 mg/kg.
Setting [10] is: Compound 2 50 mg/kg PO QD×10, 24 h post tenth dose, 50 mg/kg.
The mark [11] stands for this setting: Compound 2 50 mg/kg PO QD×10, 48 h post tenth dose, 50 mg/kg.
The mark [12] stands for this setting: Compound 2 50 mg/kg PO QD×10, 72 h post tenth dose.
[13] abbreviates: Compound 2 50 mg/kg PO QD×10, 96 h post tenth dose.
The mark [14] stands for this setting: Day 1, of Compound 2 AUC0-24, 50 mg/kg PO.
Where [15] appears, read: Day 10, of Compound 2 AUC0-last, 50 mg/kg PO QD×10.
[16] abbreviates: Day 10, Compound 2 50 mg/kg PO QD×10.
[17] abbreviates: Compound 2 50 mg/kg PO QD×1, 1 h.
The mark [18] stands for this setting: Compound 2 50 mg/kg PO QD×1, 2 h.
The mark [19] stands for this setting: Compound 2 50 mg/kg PO QD×1, 4 h.
The mark [20] stands for this setting: Compound 2 50 mg/kg PO QD×1, 8 h.
Where [21] appears, read: Compound 2 50 mg/kg PO QD×1, 24 h.
The mark [22] stands for this setting: Compound 2 50 mg/kg PO QD×10, 1 h post tenth dose.
Setting [23] is: Compound 2 50 mg/kg PO QD×10, 2 h post tenth dose.
Where [24] appears, read: Compound 2 50 mg/kg PO QD×10, 4 h post tenth dose.
[25] abbreviates: Compound 2 50 mg/kg PO QD×10, 8 h post tenth dose.
The mark [26] stands for this setting: Compound 2 50 mg/kg PO QD×10, 24 h post tenth dose.
Where [27] appears, read: Compound 2 50 mg/kg PO QD×10, 48 h post tenth dose.

“And” between values parts separate entries of the source, which are not always exact repeats. Equal entries are not always repeated.

Turning to `CCn1c(C#CCNc2ccc(F)cc2)cc2cc(CNC3CCOCC3)ccc21` [Compound 6, 3-{1-Ethyl-5-[(tetrahydro-2H-pyran-4-ylmino)methyl]-1H-indol-2-yl}-1-(p-fluorophenylamino)-2-propyne], under “in vivo, po, 50 mg/kg”, the AUC0-24 turned out to be 377 ng·h/mL and the AUC0-last is 389 ng·h/mL.

Turning to `CCn1c(C#CCNc2ccccc2)cc2cc(CNCc3ccccc3)ccc21` [Compound 4, 1-Anilino-3-[5-(benzylaminomethyl)-1-ethyl-1H-indol-2-yl]-2-propyne], the “calculated concentration in rat plasma (individual rats)” value (shortened to “calculated concentration in rat plasma”) under setting [1] is 52.4 ng/mL and 34.7 ng/mL and 28.5 ng/mL and 58.3 ng/mL and 44.0 ng/mL and 31.4 ng/mL; the “calculated concentration in rat plasma” value under setting [2] is 98.8 ng/mL and 56.5 ng/mL and 57.4 ng/mL and 65.7 ng/mL and 58.2 ng/mL and 53.3 ng/mL; the “calculated concentration in rat plasma” value under setting [3] is 72.2 ng/mL and 73.2 ng/mL and 96.5 ng/mL and 63.9 ng/mL and 69.0 ng/mL and 74.3 ng/mL; the “calculated concentration in rat plasma” value under setting [4] is 86.8 ng/mL and 66.7 ng/mL and 79.4 ng/mL and 71.8 ng/mL and 72.4 ng/mL and 63.5 ng/mL; the “calculated concentration in rat plasma” value under setting [5] is 17.9 ng/mL and 11.4 ng/mL and 18.4 ng/mL and 24.0 ng/mL and 22.5 ng/mL and 13.1 ng/mL; the “calculated concentration in rat plasma” value under setting [6] is 48.8 ng/mL and 34.5 ng/mL and 45.1 ng/mL and 46.0 ng/mL and 64.9 ng/mL and 67.1 ng/mL. In addition, the “calculated concentration in rat plasma” value under setting [7] was 42.8 ng/mL and 51.0 ng/mL and 62.7 ng/mL and 54.2 ng/mL and 59.7 ng/mL and 52.9 ng/mL; the “calculated concentration in rat plasma” value under setting [8] was 66.1 ng/mL and 54.7 ng/mL and 73.4 ng/mL and 93.1 ng/mL and 83.9 ng/mL and 58.7 ng/mL; the “calculated concentration in rat plasma” value under setting [9] is 53.2 ng/mL and 61.4 ng/mL and 69.2 ng/mL and 67.5 ng/mL and 73.1 ng/mL and 65.4 ng/mL; the “calculated concentration in rat plasma” value under setting [10] was 17.1 ng/mL and 29.4 ng/mL and 19.7 ng/mL and 38.9 ng/mL and 40.7 ng/mL and 40.1 ng/mL; the “calculated concentration in rat plasma” value under setting [11] is “BLQ and 1.97 ng/mL and 1.33 ng/mL and 4.63 ng/mL and 2.28 ng/mL and 2.67 ng/mL”; the “calculated concentration in rat plasma” value under setting [12] is “BLQ”. Moreover, the “calculated concentration in rat plasma” value under setting [13] is given as “BLQ”. Also, the “% of Parent” value under setting [14] was found to be 1.6% and the “% of Parent” value under setting [15] stood at 1.5%. The AUC0-24 (Day 1, Compound 2 50 mg/kg PO) came out at 1241 ng·h/mL. Also, the AUC0-last under setting [16] is 1620 ng·h/mL. The “Average Concentration” value under setting [17] turned out to be 41.55 ng/mL; the “Average Concentration” value under setting [18] worked out at 64.98 ng/mL; the “Average Concentration” value under setting [19] turned out to be 74.85 ng/mL; the “Average Concentration” value under setting [20] is given as 73.43 ng/mL; the “Average Concentration” value under setting [21] was found to be 17.88 ng/mL; the “Average Concentration” value under setting [22] is 51.07 ng/mL. For the same compound, the “Average Concentration” value by setting is: under setting [23], 53.88 ng/mL; under setting [24], 71.65 ng/mL; under setting [25], 64.97 ng/mL; under setting [26], 30.98 ng/mL; under setting [27], 2.58 ng/mL; under setting [12], “BLQ”. For the same compound, under setting [13], the “Average Concentration” value is “BLQ”.

On to `CCn1c(C#CCNc2ccc(C)nc2)cc2cc(CNC3CCOCC3)ccc21` [Compound 8, 3-{1-Ethyl-5-[(tetrahydro-2H-pyran-4-ylamino)methyl]-1H-indol-2-yl}-1-(6-methyl-3-pyridylamino)-2-propyne], for which the “calculated concentration in rat plasma” value reads like this: under setting [1], 28.5 ng/mL and 16.5 ng/mL and 13.4 ng/mL and 8.05 ng/mL and 22.8 ng/mL and 22.6 ng/mL; under setting [2], 88.9 ng/mL and 36.3 ng/mL and 32.5 ng/mL and 78.0 ng/mL and 62.0 ng/mL and 51.5 ng/mL; under setting [3], 84.8 ng/mL and 81.1 ng/mL and 34.9 ng/mL and 38.5 ng/mL and 52.9 ng/mL and 58.3 ng/mL; under setting [4], 77.5 ng/mL and 46.5 ng/mL and 86.3 ng/mL and 203 ng/mL and 87.6 ng/mL and 73.8 ng/mL; under setting [5], 2.71 ng/mL and 1.20 ng/mL and 1.36 ng/mL and 2.31 ng/mL and 2.43 ng/mL and 1.25 ng/mL; under setting [6], 16.5 ng/mL and 6.52 ng/mL and 10.4 ng/mL and 6.59 ng/mL and 46.7 ng/mL and 24.4 ng/mL. Moreover, the “calculated concentration in rat plasma” value was 14.6 ng/mL and 17.1 ng/mL and 27.6 ng/mL and 38.9 ng/mL and 57.5 ng/mL and 24.2 ng/mL under setting [7]; 39.0 ng/mL and 39.4 ng/mL and 22.5 ng/mL and 92.1 ng/mL and 65.1 ng/mL and 19.9 ng/mL under setting [8]; 29.5 ng/mL and 35.5 ng/mL and 57.2 ng/mL and 121 ng/mL and 135 ng/mL and 67.6 ng/mL under setting [9]; 1.63 ng/mL and 2.61 ng/mL and 2.12 ng/mL and 10.6 ng/mL and 7.70 ng/mL and 8.00 ng/mL under setting [10]; “BLQ (4×) and 1.01 ng/mL and 1.21 ng/mL” under setting [11]; “BLQ” under setting [12]. Further, the “calculated concentration in rat plasma” value under setting [13] was “BLQ”. In addition, the “% of Parent” value under setting [14] came out at 1.6% and the “% of Parent” value under setting [15] amounted to 0.9%. The AUC0-24 (Day 1, Compound 2 50 mg/kg PO) was 1254 ng·h/mL. Under setting [16], the AUC0-last stood at 1021 ng·h/mL. Further, the “Average Concentration” value reads like this: under setting [17], 18.64 ng/mL; under setting [18], 58.20 ng/mL; under setting [19], 58.42 ng/mL; under setting [20], 95.78 ng/mL; under setting [21], 1.88 ng/mL; under setting [22], 18.52 ng/mL. In addition, the “Average Concentration” value under setting [23] stood at 29.98 ng/mL; the “Average Concentration” value under setting [24] is given as 46.33 ng/mL; the “Average Concentration” value under setting [25] was 74.30 ng/mL; the “Average Concentration” value under setting [26] worked out at 5.44 ng/mL; the “Average Concentration” value under setting [27] is reported as 1.11 ng/mL; the “Average Concentration” value under setting [12] was “BLQ”. Also, under setting [13], the “Average Concentration” value was “BLQ”.
